In publication PMC8954220, “Sparsomycin Exhibits Potent Antiplasmodial Activity In Vitro and In Vivo” (Pharmaceutics, 2022):
Read-outs that look alike come from different tables or passages of the source.

Key:
P. falciparum 3D7 [1] = test: SYBR Green I-based fluorescence in vitro growth inhibition assay; format: cell-based, Plasmodium falciparum; conditions: for IC50: Plasmodium falciparum, read-out: IC50 P. falciparum 3D7
Description: (§1) P. falciparum strains 3D7 and K1 were cultivated in 2% washed human O-positive erythrocytes (supplied by Japanese Red Cross Society, Hokkaido, Japan) using a multi-gas incubator (37 °C, 5% CO2 and 5% O2).
(§2) Briefly, test compounds were diluted in complete medium to eight desired concentrations (2-fold serial dilution). […] Next, 50 μL of synchronous parasites at 0.5% parasitemia and 2% hematocrit was seeded in a 96-well plate containing 50 μL of test compounds. The 96-well plate was incubated for 72 h at 37 °C, 5% CO2 and 5% O2. Next, 100 μL of lysis buffer containing 0.02% (v/v) SYBR Green I was added to each well and mixed and then the 96-well plate was incubated at room temperature for 2 h in the dark. […] Erythrocytes treated with 1% DMSO were used as a negative control and wells containing only test compounds and erythrocytes were used to correct background signals. In at least three independent trials, the inhibition assay was performed in quadruplicate for each concentration.

P. falciparum K1 = test: as above; format: cell-based, Plasmodium falciparum; conditions: for IC50: Plasmodium falciparum, read-out: IC50 P. falciparum K1
Description: as §1, §2

[2] = Erythrocyte hemolysis assay; format: cell-based; conditions: human, 3 h at 37 °C, mean ± SD, read-out: RBC Hemolysis Rate (%) at 100 μM
Description: An erythrocyte hemolysis assay was performed as previously described [21]. Briefly, 100 μL of each compound (final concentration, 100 μM) in 1× phosphate-buffered saline (PBS) was seeded in a 96-well plate and 100 μL of a 3% erythrocyte suspension in PBS was added. The plate was incubated for 3 h at 37 °C, 5% CO2 and 5% O2 and then centrifuged at 1300× g for 5 min. Subsequently, 100 μL of the supernatant of each mixture was transferred to a new 96-well plate and the absorbance was recorded at 540 nm. […] The erythrocyte hemolysis rate was calculated using the following formula: hemolysis rate = ([Asample − Anegative control]/[Apositive control − Anegative control] × 100), where A is absorbance [21]. The experiments were performed in triplicate and repeated three times independently.

P. falciparum 3D7 [3] = test: Microscopic analysis of parasitemia and morphology (Giemsa-stained thin blood smears); format: cell-based, Plasmodium falciparum
Description: The parasites were tightly synchronized using a two-step sorbitol treatment protocol and used at the ring stage with 0.5% parasitemia and 2% hematocrit. Sm (50 and 10 nM) in complete medium and 1% DMSO in complete medium were used as the treated and untreated groups, respectively, in this assay. Subsequently, the Giemsa-stained thin blood smears of each treatment group were prepared after 1, 24, 48, or 72 h of incubation. After 72 h, incubation was continued after changing the medium in either the presence (unwashed group) or absence (washed group) of Sm for up to 144 h. Subsequently, the Giemsa-stained thin blood smears of each treatment group were prepared at 96, 120 and 144 h. The blood smears were observed using a BZ-900 all-in-one microscope (Keyence BioRevo, Tokyo, Japan). The parasitemia levels were determined by enumerating the number of infected erythrocytes in relation to uninfected erythrocytes (a minimum of 500 cells were counted). The assay was performed in triplicate for each concentration and time point.

P. yoelii 17XNL = test: Uncomplicated rodent malaria model, 7-day treatment (modified Peters' test); format: in vivo, C57BL/6 J mice
Description: (§3) Male C57BL/6 J mice (8 weeks old with body weight of 20–25 g; six mice per group) were purchased from Japan CLEA (Tokyo, Japan). The mice were allowed free access to water and food (CLEA Rodent Diet CE-2; Japan CLEA, Tokyo, Japan). The room temperature (24 °C), relative humidity (50%) and lighting (light from 8 a.m. to 8 p.m.) were adjusted and controlled. P. yoelii 17XNL and P. berghei ANKA were recovered from frozen packed erythrocyte stocks via passage in mice following intraperitoneal (i.p.) injection. Challenge experiments were performed with i.p. injections of 1 × 10^7 fresh infected erythrocytes from donor mice (designated as 0 days post-infection (dpi)). Approximately 2 h after the injection, 2 μL of blood was collected from the tip of the mice’s tail and the parasitemia levels were checked using Giemsa-stained thin blood smears. When the parasitemia level reached 1%, the infected mice were intraperitoneally treated with vehicle (1 × PBS) or Sm at a dose of 100 or 300 μg/kg (modified from reported IC50 in Ref. [22]) once daily for 7 days (0–6 dpi; modified Peters’ test) for P. yoelii 17XNL and 300 μg/kg once daily for 4 (0–3 dpi; Peters’ 4-day test) or 7 days (0–6 dpi, [23]) for P. berghei ANKA. The survival and clinical signs of mice were monitored daily after infection. Mice with high clinical signs (arched back, immobility, >20% body weight loss and pain sign) were euthanized immediately. Parasitemia in P. yoelii 17XNL-infected mice was observed daily using Giemsa-stained thin blood smears (up to 30 dpi).
A p-value of <0.05 was considered statistically significant and is shown as an asterisk or a symbol, defined in each table/figure legend together with the name of the test used.

P. berghei ANKA = test: Complicated rodent malaria model, survival (Peters' 4-day test or 7-day regimen); format: in vivo, C57BL/6 J mice; conditions: up to 25 dpi
Description: as §3, with “Mice with high clinical signs (arched back, immobility, >20% body weight loss and pain sign) were euthanized immediately. Parasitemia in P. yoelii 17XNL-infected mice was observed daily using Giemsa-stained thin blood smears (up to 30 dpi).” left out

mice = conditions: i.p. administration; cited from earlier work
[4] = test system: patients (with advanced carcinoma); parameters: method as in PMID 5928140; conditions: daily doses; after 13 days (total dose 0.24 mg/kg) and 15 days (total dose 0.15 mg/kg); cited from earlier work
retinas of animals = test system: retinas of animals; parameters: method as in PMID 3310108; conditions: animals treated with toxic doses; cited from earlier work
[5] = In vitro cytotoxicity, cell viability assay (CCK-8); conditions: human, human foreskin fibroblasts (HFFs)
Description: A cell viability assay was used to evaluate the cytotoxic action of Sm as described previously [18]. Briefly, a 100 μL cell suspension was seeded in a 96-well plate at a concentration of 1 × 10^5 cells/mL in DMEM containing 10% FBS and incubated for 48 h at 37 °C and 5% CO2. Next, 2-fold dilutions (total of eight concentrations) of test compounds in DMEM were added in quadruplicate to each well and incubated for an additional 72 h.
Data were analyzed using GraphPad Prism 8 (GraphPad Software, Inc., La Jolla, CA, USA). IC50 or CC50 values were calculated from three independent experiments using a non-linear regression fit to logarithm concentration value of the compound versus inhibition percentage of parasite or cell growth, respectively.

For `C[C@@H]1CC[C@H]2[C@@H](C)C(=O)O[C@@H]3O[C@@]4(C)CC[C@@H]1[C@]32OO4` [Artemisinin, artemisinin, reference compound], the IC50 (P. falciparum 3D7 [1]; 3D7, 72 h exposure, mean ± SD of three independent experiments) was 13.2 ± 2.66 nM and the IC50 (P. falciparum K1; K1, 72 h exposure, mean ± SD of three independent experiments) was 19.9 ± 1.51 nM.
Work on `CCN(CC)CCCC(C)Nc1ccnc2cc(Cl)ccc12` (stereo not drawn) [Chloroquine, Chloroquine diphosphate, reference compound] yielded an IC50 (P. falciparum 3D7 [1]; 3D7, 72 h) of 26.2 ± 3.66 nM and an IC50 (P. falciparum K1; K1, 72 h) of 740 ± 95.7 nM.
For `CSC[S@+]([O-])C[C@H](CO)NC(=O)/C=C/c1c(C)[nH]c(=O)[nH]c1=O` [Sparsomycin, sparsomycin], the IC50 (P. falciparum 3D7 [1]; 3D7, 72 h) was 12.1 ± 4.41 nM, the “SI for P. falciparum 3D7” value (P. falciparum 3D7 [1]; selectivity index, ratio between IC50 (3D7) and CC50 (HFF)) was 94.45 and the IC50 (P. falciparum K1; K1, 72 h) was 25.4 ± 8.15 nM. For the same molecule, the “Resistance Index” value (P. falciparum K1; ratio between the IC50 values of P. falciparum K1 and 3D7) was 2.1, the “SI for P. falciparum K1” value (P. falciparum K1; selectivity index, ratio between IC50 (K1) and CC50 (HFF)) was 44.83 and the hemolysis at 3 h, 100 µM [2] was 1.04 ± 0.23%. For the same molecule, the Parasite morphology (P. falciparum 3D7 [3]; 50 nM for 72 h) was “induced morphological alterations, including shrinkage”, the “Parasitemia levels along the incubation period” value (P. falciparum 3D7 [3]; 10 or 50 nM, 1–72 h) was “not increased” and the “Parasite life cycle stage under exposure” value (P. falciparum 3D7 [3]; 10 or 50 nM, 1–72 h of incubation, ring-stage synchronized) was “blocked in the ring stage”. The “Parasite growth after removal of compound (washed group)” value (P. falciparum 3D7 [3]; 72 h exposure to 10 or 50 nM, then further 72 h without compound (up to 144 h)) was “not restored”, the “Parasitemia levels versus control” value (P. yoelii 17XNL; 100 μg/kg i.p. once daily for 7 days) was “did not significantly alter” and the Parasitemia versus control (P. yoelii 17XNL; 300 μg/kg i.p. once daily for 7 days) was “significantly reduced”. For the same molecule, the Parasitemia peak (P. yoelii 17XNL; 300 μg/kg i.p. once daily for 7 days, peak at 11 dpi, control 40.13% (12 dpi)) was 18.85%, the Mortality (P. yoelii 17XNL; 100 or 300 μg/kg i.p. once daily for 7 days, up to 30 dpi) was “No mortality” and the Prolongation of survival (P. berghei ANKA; 300 μg/kg i.p. once daily for 4 days, significant (p < 0.05)) was 33.33%. The Prolongation of survival (P. berghei ANKA; 300 μg/kg i.p. once daily for 7 days, statistically insignificant (p > 0.05)) was 33.33%, the LD50 (mice) was 170 to 380 μg/kg per injection and the “Patients developing ring scotoma (Sm-related retinopathy)” value [4] was “two out of five patients”. The “Pathological changes in the retinas” value (retinas of animals) was “no observable pathological changes” and the CC50 at 72 h [5] was 1140 ± 30 nM.
